ChEMBL document CHEMBL1201862, “PubChem BioAssay data set” (2004)
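Growth conditions: 96-well plates. Treatment: test compound, 48 hours, 5 concentrations. Analysis: linear interpolation between bracketing concentrations; unreached endpoints set to highest concentration. The concentration for 50% growth inhibition is given as GI50.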 The source made the active and inactive calls. No stated cut-off is given here; in the data, active = GI50 up to about 1.1 µM and inactive = higher.

Tests used:
Test in all cases: NCI anticancer screen, dose series, 48 h
[1] = tested on: BT-549
[2] = tested on: NCI/ADR-RES
[3] = tested on: MCF7
[4] = tested on: SK-MEL-2
[5] = tested on: RPMI-8226
[6] = tested on: HOP-92
[7] = tested on: SK-MEL-28
[8] = tested on: Hs-578T
[9] = tested on: MDA-MB-435
[10] = tested on: 786-0
[11] = tested on: A498
[12] = tested on: PC-3
[13] = tested on: RXF 393
[14] = tested on: IGROV-1
[15] = tested on: MDA-MB-231
[16] = tested on: SR
[17] = tested on: MDA-N
[18] = tested on: SNB-75
[19] = tested on: HL-60

Measured: GI50

N#CCCN(CCC#N)c1ccc(C(=N/c2ccc(Cl)cc2)/N=N/c2ccc(Cl)cc2)cc1
inactive: [1] 14 µM | [2] 17.2 µM | [3] 10.1 µM | [4] 9.23 µM | [5] 47.2 µM | [6] 19.2 µM | [7] 59.2 µM | [8] 19.4 µM | [9] 18.2 µM | [10] 18.3 µM | [11] 19.9 µM | [12] 15.6 µM | [13] 14.3 µM | [14] 14.6 µM | [15] 19.5 µM | [16] 18.9 µM | [17] 19.5 µM | [18] 20 µM

Cc1ccn2c(=O)cc(-c3ccccc3)nc2c1
inactive: [1] > 100 µM | [2] 72.3 µM | [3] > 100 µM | [5] > 100 µM | [6] 74 µM | [7] > 100 µM | [8] > 100 µM | [9] > 10 µM | [10] > 100 µM | [12] > 100 µM | [13] > 100 µM | [14] > 100 µM | [15] > 100 µM | [19] > 100 µM | [16] > 100 µM | [17] > 100 µM | [18] 18.3 µM

O=C(O)c1ccccc1CN1CCCC(C(=O)O)C1 (stereo not given)
inactive: [1] > 100 µM | [2] > 100 µM | [3] > 100 µM | [4] > 100 µM | [5] > 100 µM | [6] > 100 µM | [7] > 100 µM | [8] > 100 µM | [9] > 100 µM | [10] > 100 µM | [11] > 100 µM | [12] > 100 µM | [13] > 100 µM | [14] > 100 µM | [15] > 100 µM | [16] > 100 µM | [17] > 100 µM | [18] > 100 µM

COC(=O)C(=O)c1c2ccccc2n2ccc3c4ccccc4[nH]c3c12
inactive: [1] > 10 µM | [2] > 10 µM | [3] > 10 µM | [4] > 10 µM | [5] > 10 µM | [6] > 10 µM | [8] 3.07 µM | [9] > 10 µM | [10] > 10 µM | [12] > 10 µM | [13] > 10 µM | [14] > 10 µM | [15] 9.18 µM | [19] > 10 µM | [16] > 10 µM | [17] > 10 µM | [18] > 10 µM
